Experimental findings from patent US8791116B2, “Myosin light chain kinase inhibitor compounds, compositions and related methods of use” (Northwestern University, priority 2006, dated 2014) are described below.

“Also recorded” adds a separate entry of the source.

The target of one series is MLCK (Homo sapiens, UniProt Q15746). Put plainly: MLCK inhibitory activity screen (32P-ATP peptide substrate phosphorylation). As to conditions: for IC50: 20 μM peptide substrate, 200 μM ATP, 20 min at 25° C., read-out: MLCK (μM), in vitro inhibition of kinases; for selectivity for MLCK over related protein kinases (in words): compared to DAPK, PKC and PKA. The class given is biochemical. On the procedure:
(§1) MLCK inhibitory activity screens were done by incubation with 20 μM peptide substrate ([…]), 200 μM ATP and [^32P]-ATP (2.5 μCi per reaction) in assay buffer (50 mM HEPES, pH 7.5 with KOH, 5 mM MgCl2, 0.15 M KCl, 0.015 M NaCl, 1 mM DTT) with 0.1 mM CaCl2 and 1 μM calmodulin (New England Biolabs, MA). [T. J. Lukas, S. Mirzoeva, U. Slomczynska and D. M. Watterson, J. Med. Chem. 42 (1999) 910-9.] Reactions were initiated by addition of MLCK protein and incubated for 20 min at 25° C. Reactions were spotted onto P-81 paper (Whatman, Clifton, N.J.), washed with 75 mM H3PO4 and 95% EtOH, and quantified by scintillation counting in EcoScintO (National Diagnostics, Atlanta, Ga.). Testing of compounds for kinase inhibitory activity against the structurally and functionally related kinases death-associated protein kinase (DAPK) and the signal transduction pathway relevant kinases protein kinase A (PKA) and protein kinase C (PKC) was performed as described by using the corresponding peptide substrates and assay conditions. [[…]. Guo, […]. Bourguignon, […]. Van Eldik and D. M. Watterson, J. Med. Chem 45 (2002) 563-6; A. M. Schumacher, […] and D. M. Watterson, Biochemistry 43 (2004) 8116-24; […]. Schumacher and D. M. Watterson, Pharmacol Ther 93 (2002) 217-24; […]. Schumacher, C. Weiss, M. Egli and D. M. Watterson, J. Biol. Chem. 276 (2001) 38956-65; D. M. Watterson, S. Mirzoeva, L. Guo, […]. Bourguignon, […] and L. J. Van Eldik, Neurochem Int. 39 (2001) 459-68.]

The target in series [1] is death-associated protein kinase (DAPK) (Homo sapiens, UniProt P53355). Nature of the series: Kinase inhibitory activity against death-associated protein kinase. The class given is biochemical. The note with it: read-out: DAPK (μM), in vitro inhibition of kinases. On the procedure: as §1
The target of a further series is protein kinase C (PKC). Put plainly: Kinase inhibitory activity against protein kinase C. The note with it: read-out: PKC (μM), in vitro inhibition of kinases. The class given is biochemical. On the procedure:
MLCK inhibitory activity screens were done by incubation with 20 μM peptide substrate (KKRPQRATSNVFAM-NH2), 200 μM ATP and [^32P]-ATP (2.5 μCi per reaction) in assay buffer (50 mM HEPES, pH 7.5 with KOH, 5 mM MgCl2, 0.15 M KCl, 0.015 M NaCl, 1 mM DTT) with 0.1 mM CaCl2 and 1 μM calmodulin (New England Biolabs, MA). [T. J. Lukas, S. Mirzoeva, U. Slomczynska and D. M. Watterson, J. Med. Chem. 42 (1999) 910-9.] Reactions were initiated by addition of MLCK protein and incubated for 20 min at 25° C. Reactions were spotted onto P-81 paper (Whatman, Clifton, N.J.), washed with 75 mM H3PO4 and 95% EtOH, and quantified by scintillation counting in EcoScintO (National Diagnostics, Atlanta, Ga.). Testing of compounds for kinase inhibitory activity against the structurally and functionally related kinases death-associated protein kinase (DAPK) and the signal transduction pathway relevant kinases protein kinase A (PKA) and protein kinase C (PKC) was performed as described by using the corresponding peptide substrates and assay conditions. [S. Mirzoeva, A. Sawkar, M. Zasadzki, L. Guo, A. V. Velentza, V. Dunlap, J. J. Bourguignon, H. Ramstrom, J. Haiech, L. J. Van Eldik and D. M. Watterson, J. Med. Chem 45 (2002) 563-6; A. M. Schumacher, J. P. Schavocky, A. V. Velentza, S. Mirzoeva and D. M. Watterson, Biochemistry 43 (2004) 8116-24; A. V. Velentza, A. M. Schumacher and D. M. Watterson, Pharmacol Ther 93 (2002) 217-24; A. V. Velentza, A. M. Schumacher, C. Weiss, M. Egli and D. M. Watterson, J. Biol. Chem. 276 (2001) 38956-65; D. M. Watterson, S. Mirzoeva, L. Guo, A. Whyte, J. J. Bourguignon, M. Hibert, J. Haiech and L. J. Van Eldik, Neurochem Int. 39 (2001) 459-68.]

For another series, the target named is protein kinase A (PKA) (Homo sapiens, UniProt P17612). Nature of the series: Kinase inhibitory activity against protein kinase A. As to conditions: read-out: PKA (μM), in vitro inhibition of kinases. The class given is biochemical. On the procedure: as §1
Series [2] in a line: In vitro metabolic stability with human liver microsomes. The class given is in vitro ADME. As to conditions: 5 μM compound, 10 and 30 min at 37° C., HPLC. On the procedure:
A standard screening of compounds for in vitro metabolic stability with human liver microsomes was done at 5 μM of compound using commercially available, calibrated human liver microsomes (BD Biosciences, Bedford, Mass.) and an NADPH-regenerating system. [D. Ackley, K. Rockich and T. Baker. in (Caldwell, Z. Y. a. G. W., ed.) Methods in pharmacology and toxicology optimization in drug discovery: in vitro methods, Humana Press Inc., Totowa, N.J. 2004, pp. 151-62.] Briefly, reaction mixtures were prepared in 0.1 M potassium phosphate buffer and contained 1.6 mg/ml microsomal protein, 5 μM test compound, 1.3 mM NADPH, 3.3 mM MgCl2, 0.4 U/ml glucose-6-phosphate dehydrogenase, and 3.3 mM glucose-6-phosphate in a total volume of 300 μl. Reactions were incubated for 10 and 30 minutes at 37° C. and halted by addition of cold acetonitrile. The mixture was centrifuged at 10000 g for 10 min and 20 μl of supernatant was analyzed by HPLC to quantify the percentage of the initial amount of compound remaining after incubation. The HPLC mobile phase consisted of 5% acetonitrile in water as reagent A and 80% acetonitrile/0.08% formic acid/water as reagent B at a flow rate of 0.2 ml/min. The gradient consisted of the following variations in % B: begin with % B at 0 for 2 min, 0-100% from 2 to 22 min, isocratic until 24 min. Peak quantification was done based upon absorption measurements at 260 nm relative to a standard curve obtained by serial dilutions of known amounts of compounds.
On the technique in general: Microsomes from liver hold many membrane-bound enzymes, among them those of drug oxidation.

In series [3] the test system is LPS induced vascular leak in the lungs. Nature of the series: Bacterial toxin (LPS)-induced pulmonary vascular leak, Evans blue dye in lung. The class given is in vivo. As to conditions: mice, LPS 10 mg/kg i.p., compound 5 mg/kg i.p., 24 h. On the procedure:
Adult (20-30 g) female C57B1/6 mice were obtained from a commercial vendor (Harlan, Indianapolis, Ind.). The generation and characterization of the MLCK210 KO mouse strain was previously described. [M. S. Wainwright, J. Rossi, J. Schavocky, S. Crawford, D. Steinhorn, […]. Jia, […]. Van Eldik and D. M. Watterson, Proc. Natl. Acad. Sci. USA 100 (2003) 6233-8.] All animal procedures were performed in accordance with relevant National Institutes of Health guidelines and approved by the Institutional Animal Care and Use Committee of Northwestern University. Pulmonary vascular leak after injurious endotoxin exposure was examined essentially as previously described, above, except using the increase in Evans blue dye in the lung as a quantitative end point. […] The levels of Evans blue in the serum and the tissue supernatant were then determined by measuring the absorbance at 620 nm. The reading at 620 nm (E620) was corrected for the presence of contaminating heme pigments in the samples by measuring the absorbance at 740 nm (E740) and using the correction formula E620=E620-(1.426×E740+0.030). The amount of Evans blue in the samples was then calculated using a standard curve obtained with known amounts of Evans blue. The results were normalized by considering the mean level of Evans blue measured in LPS-treated mice as 100%.

Chain of death-associated protein kinase (DAPK) (P53355 1-285 limits assumed, species assumed): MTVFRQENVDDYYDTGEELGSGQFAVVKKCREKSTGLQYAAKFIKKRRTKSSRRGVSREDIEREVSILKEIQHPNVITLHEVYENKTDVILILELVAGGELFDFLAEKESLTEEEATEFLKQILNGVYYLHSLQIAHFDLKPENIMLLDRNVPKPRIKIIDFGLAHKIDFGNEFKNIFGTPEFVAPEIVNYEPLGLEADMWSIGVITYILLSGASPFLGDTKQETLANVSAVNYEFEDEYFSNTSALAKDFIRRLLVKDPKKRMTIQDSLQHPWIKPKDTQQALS
Chain of MLCK (Q15746 whole entry): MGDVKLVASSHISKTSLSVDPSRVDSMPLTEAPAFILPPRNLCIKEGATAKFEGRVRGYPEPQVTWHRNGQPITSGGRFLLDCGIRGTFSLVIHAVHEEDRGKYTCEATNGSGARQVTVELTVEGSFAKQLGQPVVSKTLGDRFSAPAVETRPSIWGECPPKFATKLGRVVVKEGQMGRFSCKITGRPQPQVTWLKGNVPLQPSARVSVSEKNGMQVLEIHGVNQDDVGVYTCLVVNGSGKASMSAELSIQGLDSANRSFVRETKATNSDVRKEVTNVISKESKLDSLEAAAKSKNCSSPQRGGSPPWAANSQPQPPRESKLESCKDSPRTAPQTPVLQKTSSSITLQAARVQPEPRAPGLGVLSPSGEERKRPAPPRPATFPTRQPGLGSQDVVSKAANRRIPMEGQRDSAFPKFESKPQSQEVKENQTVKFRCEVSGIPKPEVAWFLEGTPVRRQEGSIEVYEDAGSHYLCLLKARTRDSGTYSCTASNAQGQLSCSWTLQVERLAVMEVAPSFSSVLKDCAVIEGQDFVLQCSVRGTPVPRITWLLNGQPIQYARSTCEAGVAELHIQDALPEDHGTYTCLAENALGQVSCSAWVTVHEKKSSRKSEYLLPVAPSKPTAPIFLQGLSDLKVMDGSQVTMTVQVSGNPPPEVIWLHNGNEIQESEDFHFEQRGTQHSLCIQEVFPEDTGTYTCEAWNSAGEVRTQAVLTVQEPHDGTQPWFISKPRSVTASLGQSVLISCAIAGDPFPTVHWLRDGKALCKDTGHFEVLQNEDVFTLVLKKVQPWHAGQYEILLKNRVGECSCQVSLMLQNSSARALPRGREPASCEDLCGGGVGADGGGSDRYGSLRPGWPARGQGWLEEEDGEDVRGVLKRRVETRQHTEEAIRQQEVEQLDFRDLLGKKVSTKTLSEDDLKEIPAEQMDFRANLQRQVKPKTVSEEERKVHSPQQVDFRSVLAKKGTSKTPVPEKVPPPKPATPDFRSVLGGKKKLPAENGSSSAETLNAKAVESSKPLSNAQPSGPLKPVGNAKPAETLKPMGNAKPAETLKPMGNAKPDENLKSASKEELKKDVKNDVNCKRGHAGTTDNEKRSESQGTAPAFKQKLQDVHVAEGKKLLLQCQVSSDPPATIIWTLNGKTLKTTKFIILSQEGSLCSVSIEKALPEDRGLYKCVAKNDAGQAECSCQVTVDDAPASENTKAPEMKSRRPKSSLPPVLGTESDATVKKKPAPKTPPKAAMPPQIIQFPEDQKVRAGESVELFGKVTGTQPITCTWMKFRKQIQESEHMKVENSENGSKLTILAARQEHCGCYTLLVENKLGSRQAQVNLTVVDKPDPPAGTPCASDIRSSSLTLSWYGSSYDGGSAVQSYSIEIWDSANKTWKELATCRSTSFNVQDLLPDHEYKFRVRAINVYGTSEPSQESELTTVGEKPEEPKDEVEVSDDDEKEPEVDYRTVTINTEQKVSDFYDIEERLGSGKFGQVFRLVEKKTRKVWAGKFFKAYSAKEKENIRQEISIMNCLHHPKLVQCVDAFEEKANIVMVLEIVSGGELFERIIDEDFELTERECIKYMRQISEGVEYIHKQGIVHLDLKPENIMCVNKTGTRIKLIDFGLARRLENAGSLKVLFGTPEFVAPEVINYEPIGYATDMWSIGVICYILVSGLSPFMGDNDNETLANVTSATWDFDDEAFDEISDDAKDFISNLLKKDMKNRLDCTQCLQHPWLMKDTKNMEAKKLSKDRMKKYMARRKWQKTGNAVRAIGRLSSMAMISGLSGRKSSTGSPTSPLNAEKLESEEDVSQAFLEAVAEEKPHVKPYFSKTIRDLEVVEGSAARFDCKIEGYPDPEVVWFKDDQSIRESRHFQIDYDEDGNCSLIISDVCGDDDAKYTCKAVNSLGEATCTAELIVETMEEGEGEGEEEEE

Turning to `N=c1ccc(-c2ccccc2)nn1CCCCCCCCCCC(=O)NCCC1CCCC1` [Compound 10, N-(2-cyclopentylethyl)-11-(6-imino-3-phenylpyridazin-1(6H)-yl)undecanamide], the IC50 at MLCK was 2.5 µM; in series [1] it was 206 µM; on protein kinase C (PKC), 68 µM; on protein kinase A (PKA) it was > 1000 µM. For the same compound, the “selectivity for MLCK over related protein kinases (in words)” value (“selectivity for MLCK … (in words)” for short) on MLCK was “selective for MLCK”. The “MLCK inhibitory activity relative to parent compound (in words)” value at MLCK (in vitro, versus compound 6) is reported as “more active in vitro than the parent compound 6”. In addition, in series [2], the “amount of compound remaining after incubation with human liver microsomes” value was “significantly lower than compound 6; also recorded: significantly different (***p<0.001) at 10 and 30 min compared to zero min”.

As for `N=c1ccc(-c2ccccc2)nn1CCCCCCCCCCC(=O)NCCc1c[nH]cn1` [Compound 5, N-(2-(1H-imidazol-4-yl)ethyl)-11-(6-imino-3-phenylpyridazin-1(6H)-yl)undecanamide], the IC50 on MLCK is 6.3 µM; in series [1] it was 271 µM; on protein kinase C (PKC) it was 166 µM; on protein kinase A (PKA) it was > 1000 µM. The “selectivity for MLCK … (in words)” value at MLCK is “more selective than compounds 1 or 2”.

Turning to `CN1CCCC1CCNC(=O)CCCCCCCCCCn1nc(-c2ccccc2)ccc1=N` (stereo not drawn) [Compound 6, 11-(6-imino-3-phenylpyridazin-1(6H)-yl)-N-(2-(1-methylpyrrolidin-2-yl)ethyl)-undecanamide], the IC50 on MLCK was 13.3 µM; in series [1], > 1000 µM; at protein kinase C (PKC), 414 µM; on protein kinase A (PKA), > 1000 µM. Further, at MLCK, the “selectivity for MLCK … (in words)” value is reported as “highly selective for MLCK; also recorded: selective for MLCK compared to closely related protein kinases”. For the same compound, the “selectivity for MLCK versus DAPK” value on MLCK (ratio from Table 1) is “over 76 times”. Further, the “level of Evans blue dye in lung tissue (pulmonary vascular leak)” value in series [3] is recorded as “efficacious in vivo to reduce LPS-induced pulmonary vascular leak; also recorded: significantly lower (*p<0.05) levels of dye”. Moreover, the “amount of compound remaining after incubation with human liver microsomes” value in series [2] is “stable”; in series [2] (listed as compound 6), “did not decrease up to 30 minutes of incubation; also recorded: The majority of compound 6 (filled bar) remains after 10 and 30 min incubation times”.
